Results taken from PubChem BioAssay AID1963851 (Molecular Pharmacology Branch, DTP, NCI, 2024).
Blank lines part the entries; values can stand above or below the compound they belong to.

Tested on: 188146-221-R-J1-PDC complex spheroid viability
Experiment: Anticancer human tumor 188146-221-R-J1-PDC patient-derived colon adenocarcinoma cell line growth inhibition [POLQ]
Settings: for viability, T/C: stronger effect = lower value
Experimental: Multicellular complex tumor spheroid response to Polymerase (POL) inhibitors (novobiocin, ART-558, RP6685) in combination with a variety of drugs and investigational agents in selected tumor cell lines
The POL inhibitors (novobiocin, ART-558, and RP6685) were evaluated both individually and in combination with standard of care and investigational anticancer small molecules within a complex spheroid model of solid tumors. . Complex spheroids include a stromal component modeled by human endothelial cells (HUVEC) and fibroblasts modeled by human mesenchymal stem cells (MSCs). The concentration ranges selected for each drug and investigational agent were based upon clinically achievable concentrations if the clinical Cmax of the agent was known.
Compounds. The drugs and investigational agents: novobiocin (NSC847541), ART-558 (NSC835418), RP-6685 (NSC848927), peposertib (NSC802822), ceralasertib (NSC780249), elimusertib (NSC800525), camonsertib (NSC841442), AZD-1390 (NSC803789), olaparib (NSC753686), talazoparib (NSC767125), rucaparib (NSC756644), sotorasib (NSC818433), MRTX-1133 (NSC836407), SN-38 (NSC673596), topotecan (NSC609699), epotoside (NSC141540), doxorubicin (NSC123127), gemcitabine (NSC613327), 5-fluorouracil (NSC19893), paclitaxel (NSC125973), vemurafenib (NSC761431), MSA-2 (NSC828583), SN-011 (NSC837082), adavosertib (NSC754352), prexasertib (NSC758257), carboplatin (NSC241240) and oxaliplatin (NSC266046), were obtained from the National Cancer Institute (NCI) Developmental Therapeutics Program Chemical Repository (21). The FDA-approved anticancer drug set is available from the Developmental Therapeutics Program at https://dtp.cancer.gov/organization/dscb/obtaining/. […] The stock solutions were prepared in dimethyl sulfoxide (DMSO, Sigma-Aldrich, St. Louis, MO, cat. D2650), except for the platinum compounds which were prepared in saline (Quality Biological, Gaithersburg, MD, cat. 114-055-101), at 800-fold the tested concentration and stored at -70 degrees C prior to their use. All drugs and investigational agents were tested over a range starting from a high concentration at or near the clinical Cmax and decreasing in half-log increments. If the clinical Cmax for an agent had not been determined, the highest concentration tested was 10 microM, except for SN-38, which was tested at a high concentration of 1 microM.
Cell Culture. All cells were maintained in an incubator at 37 degrees C and 5% CO2 with 95% humidity. The PDC lines were cultured according to standard operating procedures established by the NCI PDMR (https://pdmr.cancer.gov). Table 3 of the manuscript, lists the cell lines along with the number of the three cell types plated to form the mct-spheroids and media for tumor cell growth. After thawing, all PDC lines, except 997537-175-T-J1-PDC and 415267-285-R-J2-PDC, were cultured in Matrigel-coated flasks prepared with a working solution of 1X Ham's F-12 nutrient mix, without supplementation (Thermo Fisher Scientific, cat. 11765054), 100 U/mL penicillin-streptomycin (Thermo Fisher Scientific, cat. 15140122), and 2.5% Matrigel (Corning Inc., Corning, NY, cat. 354248) for the first three passages. The two PDC lines 997537-175-T-J1-PDC and 415267-285-R-J2-PDC were cultured on uncoated flasks. The 857933-349-R-J2-PDC line was cultured in 6C/Colon 1B media containing advanced DMEM/F-12 (Thermo Fisher Scientific, cat. 12634028), 10 mM HEPES (Thermo Fisher Scientific, cat. 15630080), 1X GlutaMAX supplement (Thermo Fisher Scientific, cat. 35050061), 0.1 mg/mL primocin (InvivoGen, San Diego, CA, cat. ant-pm-2), 10% defined fetal bovine serum, heat inactivated (HyClone Laboratories Inc., Logan, UT, cat. SH30070.03HI), 50% L-WRN conditioned media (ATCC, cat. CRL-3276), 1.25 mM N-Acetyl-L-cysteine (Sigma-Aldrich, cat. A9165), 10 mM nicotinamide (Sigma-Aldrich, cat. N0636), 1X B-27 supplement (Thermo Fisher Scientific, cat. 17504044), 1X N-2 supplement (Thermo Fisher Scientific, cat. […]
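Note: spheroids exposed to compounds for seven days.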
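Throughout, for viability, T/C: 100% = DMSO vehicle control viability.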

SMILES: CCc1cc2c(N3CCc4c(cc(Cn5ccnc5)cc4-c4cn(C)nc4C(F)(F)F)C3=O)ccnc2c(OC)n1 + Cc1cccc(N(C)C(=O)C2C(O)CCN2c2nc(C)cc(C(F)(F)F)c2C#N)c1
- IC50 (curve of first compound, second compound 0.0316 µM): 9.01 µM
- IC50 (curve of first compound, second compound 0.1 µM): > 10 µM
- IC50 (curve of first compound, second compound 0.316 µM): 8.88 µM
- IC50 (curve of first compound, second compound 1 µM): 7.87 µM
- IC50 (curve of first compound, second compound 3.16 µM): 8.27 µM
- IC50 (curve of first compound, second compound 10 µM): 5.92 µM
- viability, T/C (second compound 0.0316 µM, first compound 0.0316 µM): 90.5%
- viability, T/C (second compound 0.0316 µM, first compound 0.1 µM): 92%
- viability, T/C (second compound 0.0316 µM, first compound 0.316 µM): 93.5%
- viability, T/C (second compound 0.0316 µM, first compound 1 µM): 102%
- viability, T/C (second compound 0.0316 µM, first compound 3.16 µM): 67.8%
- viability, T/C (second compound 0.0316 µM, first compound 10 µM): 48.2%
- viability, T/C (second compound 0.1 µM, first compound 0.0316 µM): 117%
- viability, T/C (second compound 0.1 µM, first compound 0.1 µM): 78.8%
- viability, T/C (second compound 0.1 µM, first compound 0.316 µM): 97.8%
- viability, T/C (second compound 0.1 µM, first compound 1 µM): 90.8%
- viability, T/C (second compound 0.1 µM, first compound 3.16 µM): 77.8%
- viability, T/C (second compound 0.1 µM, first compound 10 µM): 49.8%
- viability, T/C (second compound 0.316 µM, first compound 0.0316 µM): 107%
- viability, T/C (second compound 0.316 µM, first compound 0.1 µM): 114%
- viability, T/C (second compound 0.316 µM, first compound 0.316 µM): 85.2%
- viability, T/C (second compound 0.316 µM, first compound 1 µM): 78.6%
- viability, T/C (second compound 0.316 µM, first compound 3.16 µM): 66.5%
- viability, T/C (second compound 0.316 µM, first compound 10 µM): 47.1%
- viability, T/C (second compound 1 µM, first compound 0.0316 µM): 107%
- viability, T/C (second compound 1 µM, first compound 0.1 µM): 98.2%
- viability, T/C (second compound 1 µM, first compound 0.316 µM): 91.5%
- viability, T/C (second compound 1 µM, first compound 1 µM): 105%
- viability, T/C (second compound 1 µM, first compound 3.16 µM): 71%
- viability, T/C (second compound 1 µM, first compound 10 µM): 44.4%
- viability, T/C (second compound 3.16 µM, first compound 0.0316 µM): 90.1%
- viability, T/C (second compound 3.16 µM, first compound 0.1 µM): 91.4%
- viability, T/C (second compound 3.16 µM, first compound 0.316 µM): 91.6%
- viability, T/C (second compound 3.16 µM, first compound 1 µM): 81.7%
- viability, T/C (second compound 3.16 µM, first compound 3.16 µM): 66.6%
- viability, T/C (second compound 3.16 µM, first compound 10 µM): 46.7%
- viability, T/C (second compound 10 µM, first compound 0.0316 µM): 92.5%
- viability, T/C (second compound 10 µM, first compound 0.1 µM): 82.5%
- viability, T/C (second compound 10 µM, first compound 0.316 µM): 74.1%
- viability, T/C (second compound 10 µM, first compound 1 µM): 69.6%
- viability, T/C (second compound 10 µM, first compound 3.16 µM): 61.2%
- viability, T/C (second compound 10 µM, first compound 10 µM): 40.7%

- IC50 (compound alone, run of 11/06/2023): > 10 µM
SMILES: Nc1ccc(C#CCN(C(=O)Cc2ncc(C(F)(F)F)cc2C(F)(F)F)c2ccc(F)cc2)nn1
- viability, T/C (compound 0.0316 µM): 94.8% [middle of 12 runs]
- viability, T/C (compound 0.1 µM): 99.1% [middle of 13 runs]
- viability, T/C (compound 0.316 µM): 105% [middle of 13 runs]
- viability, T/C (compound 1 µM): 102% [middle of 13 runs]
- viability, T/C (compound 3.16 µM): 101% [middle of 12 runs]
- viability, T/C (compound 10 µM): 108% [middle of 13 runs]
